Experimental data from patent US10131652B2, “Pyrimidinyloxy benzene derivatives as herbicides” (E. I. DU PONT DE NEMOURS AND COMPANY, priority 2014, dated 2018).
Read-outs that look alike come from different tables or passages of the source.

Tests used:
Format in all cases: in vivo
[1] = system: blackgrass (Alopecurus myosuroides); experiment: Test B postemergence plant response
Method in brief: (§1)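 Values are visual control ratings (0 to 100) recorded approximately 10 days after postemergence application to greenhouse-grown plants of 2 to 10 cm, one- to two-leaf stage, each judged against untreated controls.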

[2] = system: galium (catchweed bedstraw, Galium aparine); experiment: Test B postemergence plant response
Method in brief: as §1

[3] = system: small-flower umbrella sedge (Cyperus difformis); experiment: Test C flooded paddy test plant response; settings: Flood, 250 g ai/ha, scale of 0 to 100 where 0 is no effect and 100 is complete control, 13 to 15 days
Method in brief: (§2)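 Water-applied treatment: compounds go directly into floodwater standing 3 cm over the soil of pots holding 2-leaf-stage plants. Depth is kept constant; plants stay in a greenhouse 13 to 15 days before visual comparison with controls on a 0–100 scale.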

[4] = system: barnyardgrass (Echinochloa crus-galli); experiment: Test C flooded paddy test plant response; settings: Flood, 250 g ai/ha, scale of 0 to 100 where 0 is no effect and 100 is complete control, 13 to 15 days
Method in brief: as §2

[5] = system: ducksalad (Heteranthera limosa); experiment: Test C flooded paddy test plant response; settings: Flood, 250 g ai/ha, scale of 0 to 100 where 0 is no effect and 100 is complete control, 13 to 15 days
Method in brief: as §2

rice (Oryza sativa) = experiment: Test C flooded paddy test plant response; settings: Flood, 250 g ai/ha, scale of 0 to 100 where 0 is no effect and 100 is complete control, 13 to 15 days
Method in brief: as §2

[6] = system: ragweed (common ragweed, Ambrosia elatior); experiment: Test B pre-/postemergence plant response
Method in brief: (§3)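 Evaluation is visual, about 10 days after application, rating injury from 0 (none) to 100 (complete control) relative to untreated controls. Application was a preemergence soil spray on seeded pots or a postemergence spray on one- to two-leaf plants.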

kochia (Kochia scoparia) = experiment: Test B pre-/postemergence plant response
Method in brief: as §3

[7] = system: pigweed (Amaranthus retroflexus); experiment: Test B pre-/postemergence plant response
Method in brief: as §3

[8] = system: giant foxtail (Setaria faberii); experiment: Test B pre-/postemergence plant response
Method in brief: as §3

[9] = system: Italian ryegrass (Lolium multiflorum); experiment: Test B pre-/postemergence plant response
Method in brief: as §3

[10] = system: barnyardgrass (Echinochloa crus-galli); experiment: Test B pre-/postemergence plant response
Method in brief: as §3

corn (Zea mays) = experiment: Test B pre-/postemergence plant response
Method in brief: as §3

[11] = system: wheat (Triticum aestivum); experiment: Test B pre-/postemergence plant response
Method in brief: as §3

[12] = 125 g ai/ha, postemergence, 0 to 100 scale, 0 no effect, 100 complete control
[13] = Postemergence, 31 g ai/ha, 0 to 100 scale (0 no effect, 100 complete control)
[14] = 31 g ai/ha, Preemergence, 0 to 100 scale where 0 is no effect and 100 is complete control
[15] = Preemergence, 125 g ai/ha, 0 to 100 scale (0 no effect, 100 complete control)
[16] = Postemergence, 500 g ai/ha, 0 to 100 scale (0 no effect, 100 complete control)
[17] = Preemergence, 500 g ai/ha, 0 to 100 scale where 0 is no effect and 100 is complete control

## Clc1cnc(Oc2ccccc2-c2ccno2)nc1 [Compound 154]
[1]; [12]
  Plant response rating, Blackgrass: 0
[1]; [13]
  Plant response rating, Blackgrass: 0
[2]; [12]
  Plant response rating, Galium: 0
[2]; [13]
  Plant response rating, Galium: 0
[3]
  Sedge, Umbrella plant response rating: 0
[4]
  Barnyardgrass plant response rating: 0
[5]
  Ducksalad plant response rating: 0
Rice (Oryza sativa)
  Rice plant response rating: 0
[6]; [14]
  Plant response rating, Ragweed: 0
[6]; [12]
  Plant response rating, Ragweed: 0
[6]; [13]
  Plant response rating, Ragweed: 0
[6]; [15]
  Ragweed plant response rating: 0
Kochia (Kochia scoparia); [14]
  Plant response rating, Kochia: 0
Kochia (Kochia scoparia); [12]
  Plant response rating, Kochia: 0
Kochia (Kochia scoparia); [13]
  Plant response rating, Kochia: 0
Kochia (Kochia scoparia); [15]
  Kochia plant response rating: 0
[7]; [14]
  Plant response rating, Pigweed: 0
[7]; [12]
  Plant response rating, Pigweed: 0
[7]; [13]
  Plant response rating, Pigweed: 0
[7]; [15]
  Pigweed plant response rating: 0
[8]; [14]
  Plant response rating, Foxtail, Giant: 0
[8]; [12]
  Plant response rating, Foxtail, Giant: 0
[8]; [13]
  Plant response rating, Foxtail, Giant: 0
[8]; [15]
  Foxtail, Giant plant response rating: 0
[9]; [14]
  Plant response rating, Ryegrass, Italian: 0
[9]; [12]
  Plant response rating, Ryegrass, Italian: 0
[9]; [13]
  Plant response rating, Ryegrass, Italian: 0
[9]; [15]
  Ryegrass, Italian plant response rating: 0
[10]; [14]
  Plant response rating, Barnyardgrass: 0
[10]; [12]
  Plant response rating, Barnyardgrass: 0
[10]; [13]
  Plant response rating, Barnyardgrass: 0
[10]; [15]
  Barnyardgrass plant response rating: 0
Corn (Zea mays); [12]
  Plant response rating, Corn: 0
Corn (Zea mays); [13]
  Plant response rating, Corn: 0
[11]; [12]
  Plant response rating, Wheat: 0
[11]; [13]
  Plant response rating, Wheat: 0

## Brc1cnc(Oc2ccccc2-c2ccno2)nc1 [Compound 155]
[1]; [12]
  Plant response rating, Blackgrass: 0
[1]; [13]
  Plant response rating, Blackgrass: 0
[2]; [12]
  Plant response rating, Galium: 0
[2]; [13]
  Plant response rating, Galium: 0
[3]
  Sedge, Umbrella plant response rating: 0
[4]
  Barnyardgrass plant response rating: 0
[5]
  Ducksalad plant response rating: 0
Rice (Oryza sativa)
  Rice plant response rating: 0
[6]; [14]
  Plant response rating, Ragweed: 0
[6]; [12]
  Plant response rating, Ragweed: 0
[6]; [13]
  Plant response rating, Ragweed: 0
[6]; [15]
  Ragweed plant response rating: 0
Kochia (Kochia scoparia); [14]
  Plant response rating, Kochia: 0
Kochia (Kochia scoparia); [12]
  Plant response rating, Kochia: 0
Kochia (Kochia scoparia); [13]
  Plant response rating, Kochia: 0
Kochia (Kochia scoparia); [15]
  Kochia plant response rating: 0
[7]; [14]
  Plant response rating, Pigweed: 0
[7]; [12]
  Plant response rating, Pigweed: 0
[7]; [13]
  Plant response rating, Pigweed: 0
[7]; [15]
  Pigweed plant response rating: 0
[8]; [14]
  Plant response rating, Foxtail, Giant: 0
[8]; [12]
  Plant response rating, Foxtail, Giant: 0
[8]; [13]
  Plant response rating, Foxtail, Giant: 0
[8]; [15]
  Foxtail, Giant plant response rating: 0
[9]; [14]
  Plant response rating, Ryegrass, Italian: 0
[9]; [12]
  Plant response rating, Ryegrass, Italian: 0
[9]; [13]
  Plant response rating, Ryegrass, Italian: 0
[9]; [15]
  Ryegrass, Italian plant response rating: 0
[10]; [14]
  Plant response rating, Barnyardgrass: 0
[10]; [12]
  Plant response rating, Barnyardgrass: 0
[10]; [13]
  Plant response rating, Barnyardgrass: 0
[10]; [15]
  Barnyardgrass plant response rating: 0
Corn (Zea mays); [12]
  Plant response rating, Corn: 0
Corn (Zea mays); [13]
  Plant response rating, Corn: 0
[11]; [12]
  Plant response rating, Wheat: 0
[11]; [13]
  Plant response rating, Wheat: 0

## FC(F)(F)c1ccnc(-c2c(Cl)cccc2Oc2ncc(Cl)cn2)c1 [Compound 159]
[1]; [12]
  Plant response rating, Blackgrass: 0
[1]; [16]
  Plant response rating, Blackgrass: 30
[2]; [12]
  Plant response rating, Galium: 70
[2]; [16]
  Plant response rating, Galium: 100
[3]
  Sedge, Umbrella plant response rating: 0
[4]
  Barnyardgrass plant response rating: 0
[5]
  Ducksalad plant response rating: 0
Rice (Oryza sativa)
  Rice plant response rating: 0
[6]; [12]
  Plant response rating, Ragweed: 0
[6]; [16]
  Plant response rating, Ragweed: 0
[6]; [15]
  Ragweed plant response rating: 0
[6]; [17]
  Plant response rating, Ragweed: 0
Kochia (Kochia scoparia); [12]
  Plant response rating, Kochia: 20
Kochia (Kochia scoparia); [16]
  Plant response rating, Kochia: 80
Kochia (Kochia scoparia); [15]
  Kochia plant response rating: 0
Kochia (Kochia scoparia); [17]
  Plant response rating, Kochia: 30
[7]; [12]
  Plant response rating, Pigweed: 90
[7]; [16]
  Plant response rating, Pigweed: 100
[7]; [15]
  Pigweed plant response rating: 40
[7]; [17]
  Plant response rating, Pigweed: 100
[8]; [12]
  Plant response rating, Foxtail, Giant: 0
[8]; [16]
  Plant response rating, Foxtail, Giant: 70
[8]; [15]
  Foxtail, Giant plant response rating: 20
[8]; [17]
  Plant response rating, Foxtail, Giant: 90
[9]; [12]
  Plant response rating, Ryegrass, Italian: 0
[9]; [16]
  Plant response rating, Ryegrass, Italian: 0
[9]; [15]
  Ryegrass, Italian plant response rating: 0
[9]; [17]
  Plant response rating, Ryegrass, Italian: 0
[10]; [12]
  Plant response rating, Barnyardgrass: 0
[10]; [16]
  Plant response rating, Barnyardgrass: 20
[10]; [15]
  Barnyardgrass plant response rating: 0
[10]; [17]
  Plant response rating, Barnyardgrass: 60
Corn (Zea mays); [12]
  Plant response rating, Corn: 20
Corn (Zea mays); [16]
  Plant response rating, Corn: 30
[11]; [12]
  Plant response rating, Wheat: 20
[11]; [16]
  Plant response rating, Wheat: 20

## FC(F)(F)c1ccc(-c2c(Cl)cccc2Oc2ncc(Cl)cn2)nc1 [Compound 160, 5-chloro-2-[2-[5-(trifluoromethyl)-2-pyridinyl]-3-chlorophenoxy]pyrimidine]
[1]; [12]
  Plant response rating, Blackgrass: 50
[1]; [16]
  Plant response rating, Blackgrass: 90
[2]; [12]
  Plant response rating, Galium: 70
[2]; [16]
  Plant response rating, Galium: 100
[3]; Cyperus difformis, read-out: Sedge, Umbrella plant response rating
  pest or weed control at 250 g/ha: 0%
[4]; Echinochloa crus-galli, read-out: Barnyardgrass plant response rating
  pest or weed control at 250 g/ha: 0%
[5]; Heteranthera limosa, read-out: Ducksalad plant response rating
  pest or weed control at 250 g/ha: 0%
Rice (Oryza sativa); Oryza sativa, read-out: Rice plant response rating
  plant injury at 250 g/ha: 0%
[6]; [12]
  Plant response rating, Ragweed: 0
[6]; [16]
  Plant response rating, Ragweed: 30
[6]; [15]
  Ragweed plant response rating: 0
[6]; [17]
  Plant response rating, Ragweed: 0
Kochia (Kochia scoparia); [12]
  Plant response rating, Kochia: 40
Kochia (Kochia scoparia); [16]
  Plant response rating, Kochia: 90
Kochia (Kochia scoparia); [15]
  Kochia plant response rating: 30
Kochia (Kochia scoparia); [17]
  Plant response rating, Kochia: 90
[7]; Amaranthus retroflexus, post-emergence, 240 h, 125 g ai/ha, postemergence, 0 to 100 scale, 0 no effect, 100 complete control, read-out: Plant response rating, Pigweed
  pest or weed control at 125 g/ha: 90%
[7]; Amaranthus retroflexus, post-emergence, 240 h, Postemergence, 500 g ai/ha, 0 to 100 scale (0 no effect, 100 complete control), read-out: Plant response rating, Pigweed
  pest or weed control at 500 g/ha: 100%
[7]; Amaranthus retroflexus, pre-emergence, 240 h, Preemergence, 500 g ai/ha, 0 to 100 scale where 0 is no effect and 100 is complete control, read-out: Plant response rating, Pigweed
  pest or weed control at 500 g/ha: 100%
[7]; [15]
  Pigweed plant response rating: 90
[8]; [15]
  Foxtail, Giant plant response rating: 50
[8]; Setaria faberi, post-emergence, 240 h, 125 g ai/ha, postemergence, 0 to 100 scale, 0 no effect, 100 complete control, read-out: Plant response rating, Foxtail, Giant
  pest or weed control at 125 g/ha: 30%
[8]; Setaria faberi, post-emergence, 240 h, Postemergence, 500 g ai/ha, 0 to 100 scale (0 no effect, 100 complete control), read-out: Plant response rating, Foxtail, Giant
  pest or weed control at 500 g/ha: 100%
[8]; Setaria faberi, pre-emergence, 240 h, Preemergence, 500 g ai/ha, 0 to 100 scale where 0 is no effect and 100 is complete control, read-out: Plant response rating, Foxtail, Giant
  pest or weed control at 500 g/ha: 100%
[9]; [12]
  Plant response rating, Ryegrass, Italian: 0
[9]; [16]
  Plant response rating, Ryegrass, Italian: 90
[9]; [15]
  Ryegrass, Italian plant response rating: 0
[9]; [17]
  Plant response rating, Ryegrass, Italian: 0
[10]; Echinochloa crus-galli, post-emergence, 240 h, 125 g ai/ha, postemergence, 0 to 100 scale, 0 no effect, 100 complete control, read-out: Plant response rating, Barnyardgrass
  pest or weed control at 125 g/ha: 0%
[10]; Echinochloa crus-galli, post-emergence, 240 h, Postemergence, 500 g ai/ha, 0 to 100 scale (0 no effect, 100 complete control), read-out: Plant response rating, Barnyardgrass
  pest or weed control at 500 g/ha: 80%
[10]; Echinochloa crus-galli, pre-emergence, 240 h, Preemergence, 500 g ai/ha, 0 to 100 scale where 0 is no effect and 100 is complete control, read-out: Plant response rating, Barnyardgrass
  pest or weed control at 500 g/ha: 80%
[10]; [15]
  Barnyardgrass plant response rating: 0
Corn (Zea mays); Zea mays, post-emergence, 240 h, 125 g ai/ha, postemergence, 0 to 100 scale, 0 no effect, 100 complete control
  Corn plant response rating (crop injury, 0 = no effect, 100 = complete kill) at 125 g/ha: 30%
Corn (Zea mays); Zea mays, post-emergence, 240 h, Postemergence, 500 g ai/ha, 0 to 100 scale (0 no effect, 100 complete control)
  Corn plant response rating (crop injury, 0 = no effect, 100 = complete kill) at 500 g/ha: 90%
[11]; Triticum aestivum, post-emergence, 240 h, 125 g ai/ha, postemergence, 0 to 100 scale, 0 no effect, 100 complete control, read-out: Plant response rating, Wheat
  plant injury at 125 g/ha: 20%
[11]; Triticum aestivum, post-emergence, 240 h, Postemergence, 500 g ai/ha, 0 to 100 scale (0 no effect, 100 complete control), read-out: Plant response rating, Wheat
  plant injury at 500 g/ha: 80%
